Measured values taken from patent US20040152666A1, “Methods of reducing complications associated with peritoneal dialysis in patients with diabetes obesity and/or hyperlipidemia” (priority 2002, published 2004).

Key:
[1] = intraperitoneal infusion of radiolabeled NAG (ref. 19); cited from earlier work
rats = assay: Acute peritoneal dialysis in rats with NAG-based or glucose-based dialysis fluid; format: in vivo, rat
Experimental: Peritoneal transport kinetics as well as blood insulin and glucose levels were evaluated in rats during acute peritoneal dialysis. Peritoneal dialysis fluids tested in the studies described herein were prepared in the laboratory and sterilized by filtration. Electrolyte and buffer compositions of both solutions were identical, similar to those contained in commercially available fluids. Concentrations of the individual solutes were as follows (mmol/l): Na 132, Ca 1.75, Mg 0.75, Cl 102, lactate 35. Glucose or NAG were used as osmotic solutes, both in a concentration of 220 mmol/l. Osmolality of the glucose-based dialysis fluid was 478 mOsm/kg H20 and of the solution containing NAG 476 mOsm/kg H2O; pH of the studied fluids was 7.02 and 7.03, respectively.
Acute peritoneal dialysis was performed in male Wistar rats (b.w.270-330 g) according to the methods described previously (see ref. 10 below). For 24 hours prior to the experiments, animals were given only drinking water and no food. At the beginning of the study, under ether anesthesia, blood samples were collected from the tail vein and thereafter 20 ml of the dialysis fluid was infused via a polyvinyl catheter (1.2 gauge; Vygon, Helsingborg, Sweden); the catheter was instantly removed after infusion. Thereafter the rats were transferred to individual cages, signs of anesthesia disappeared within 5 minutes. Dialysis fluid dwelled in the peritoneal cavity for 1 hour, 3 hours or 6 hours. 12 animals were studied at each time interval: 6 in the NAG group and 6 in the glucose group. During the dialysis animals were conscious with free access to drinking water but no food. At the end of the dwell time rats were again anesthetized with ether, blood samples were collected from the heart and then animals were sacrificed by exsanguination from heart. Afterwards the peritoneal cavity was opened and the dialysate was collected with a pipette. Dialysate volume was measured by weight. Blood and dialysate samples were centrifuged (1500 rpm for 10 minutes) and serum or dialysate supernatant were stored at −20° C. for further analysis. In dialysate samples drained after 6 hrs dwell cell count was determined in a Neubauer chamber.
Serum and dialysate samples were analyzed for creatinine (enzymatic test, Analco, Warsaw) and total protein were analyzed using Lowry method (11). Sodium concentration in the unused dialysis fluid and dialysate was measured with flame photometry (Eppendorf, Germany). Glucose concentration in serum was measured with an enzymatic test (Sigma Chemical, St.Louis, Mo., U.S.A.). Insulin concentration in serum was measured with ELISA kit (Mercodia, Uppsala, Sweden). Hyaluronan concentration in the dialysate samples was measured with ELISA (Chugai, Japan). Sodium sieving and permeability coefficient for creatinine were calculated for exchanges with 1 hour dwell. Results are presented as mean±SD. Statistical analysis was performed with Mann-Whitney test for unpaired data. A p value less than 0.05 was considered significant.

[2] = tested on: human peritoneal mesothelial cells; conditions: in vitro, culture medium supplemented with NAG, within six hours (ref. 12); cited from earlier work

- dialysate cell count (intraperitoneal inflammation) (rats; rat, in vivo, ip): 945±251 cells/μl
SMILES: CC(=O)N[C@H]1C(O)O[C@H](CO)[C@@H](O)[C@@H]1O (stereo partly shown) [NAG, N-acetylglucosamine]
- appearance of the tracer in the exhaled air [1]: about 25%
- appearance of the tracer in urine [1]: about 20%
- dialysate volume compared with glucose-based solution (rats; rats, 1 and 3 hrs exchange): higher
- sodium sieving (D/D0) (rats; rats, 1 hour exchange, mean±SD): 0.955±0.034
- increase of blood insulin level after 3 hours dialysis (rats; rats, 3 hours dialysis, mean±SD): 4.5 ± 4.7 pmol/L
- end dialysate volume (rats; rats, 6 hour dwell, osmotic solute 220 mmol/l, 20 ml infused, mean±SD): 34.5 ± 1.7 mL
- peritoneal permeability to total protein, dialysate/serum ratio×1000 (D/S×1000) (rats; rats, 6 hrs dwell, osmotic solute 220 mmol/l, mean±SD): 9.7±2.5
- increase of blood glucose level (rats; rats, after 1 hour dwell of NAG dialysis fluid): 39%
- increase in blood insulin level, times weaker than with dialysis fluid containing glucose (rats; rats, after 3 hours dialysis): about 12 times
- increase of blood glucose level (rats; rats, after 3 hours dwell of NAG dialysis fluid): 54%
- increase of blood glucose level (rats; rats, after 6 hours dwell of NAG dialysis fluid): 116%
- hyaluronan concentration in the dialysate (rats; rats, dialysate after 6 hrs dwell, mean±SD): 60.3 ± 7.8 ng/mL
- blood glucose concentration, highest observed during dialysis (rats; rats, osmotic solute 220 mmol/l, dwell 1, 3 or 6 hours, mean±SD): 91 ± 9 mg/dL
- increase of blood insulin level (maximal) during dialysis (rats; rats, osmotic solute 220 mmol/l, mean±SD): 5.0 ± 5.4 pmol/L
- synthesis of hyaluronan [2]: increase within six hours synthesis of hyaluronan
